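The compound was tested at five concentrations on cells cultured in 96-well plates, with a 48-hour exposure period. GI50 = concentration required for 50% inhibition of growth.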 The source made the active and inactive calls. Cut-off read from the data, not from the text of the source: active = GI50 up to about 1.1 µM and inactive = higher.
Tests used:
Assay in all cases: DTP human tumour cell line panel, 48 h
HT-29 = tested on: HT-29
TK-10 = tested on: TK-10
786-0 = tested on: 786-0
SK-OV-3 = tested on: SK-OV-3
SK-MEL-2 = tested on: SK-MEL-2
MOLT-4 = tested on: MOLT-4
OVCAR-4 = tested on: OVCAR-4
NCI-H522 = tested on: NCI-H522
HOP-92 = tested on: HOP-92
RXF 393 = tested on: RXF 393
KM12 = tested on: KM12
SNB-19 = tested on: SNB-19
SK-MEL-28 = tested on: SK-MEL-28
OVCAR-8 = tested on: OVCAR-8
SF-295 = tested on: SF-295
SW-620 = tested on: SW-620
LOX IMVI = tested on: LOX IMVI

| Compound | GI50 (HT-29) | GI50 (TK-10) | GI50 (786-0) | GI50 (SK-OV-3) | GI50 (SK-MEL-2) | GI50 (MOLT-4) | GI50 (OVCAR-4) | GI50 (NCI-H522) | GI50 (HOP-92) | GI50 (RXF 393) | GI50 (KM12) | GI50 (SNB-19) | GI50 (SK-MEL-28) | GI50 (OVCAR-8) | GI50 (SF-295) | GI50 (SW-620) | GI50 (LOX IMVI) |
| --- | --- | --- | --- | --- | --- | --- | --- | --- | --- | --- | --- | --- | --- | --- | --- | --- | --- |
| CCc1cccc(C)c1NC(=O)C(=O)Cc1nc2ccccc2s1 | > 100 µM (inactive) | > 100 µM (inactive) | > 100 µM (inactive) | > 100 µM (inactive) | > 100 µM (inactive) | > 100 µM (inactive) | > 100 µM (inactive) | > 100 µM (inactive) | 0.47 µM (active) | > 100 µM (inactive) | > 100 µM (inactive) | > 100 µM (inactive) | > 100 µM (inactive) | > 100 µM (inactive) | > 100 µM (inactive) | 0.371 µM (active) | – |
| COC(=O)[C@@H]1c2[nH]c3ccccc3c2C[C@@H]2c3ccccc3NC(=O)[C@@H]21 | > 100 µM (inactive) | > 80.4 µM (inactive) | 42.8 µM (inactive) | 20.7 µM (inactive) | > 62.8 µM (inactive) | > 100 µM (inactive) | – | > 100 µM (inactive) | – | 26.2 µM (inactive) | > 100 µM (inactive) | > 80.2 µM (inactive) | > 91 µM (inactive) | 21.3 µM (inactive) | 15.7 µM (inactive) | > 70.3 µM (inactive) | 31 µM (inactive) |
| CN1C(=O)C(C)(C)NS1(=O)=O | > 100 µM (inactive) | > 100 µM (inactive) | > 100 µM (inactive) | > 100 µM (inactive) | > 100 µM (inactive) | > 100 µM (inactive) | > 100 µM (inactive) | – | – | > 100 µM (inactive) | > 100 µM (inactive) | > 100 µM (inactive) | > 100 µM (inactive) | > 100 µM (inactive) | > 100 µM (inactive) | > 100 µM (inactive) | > 100 µM (inactive) |
| CN(Cc1ccccc1)C(=O)c1ccccc1C(=O)O | > 100 µM (inactive) | > 100 µM (inactive) | > 100 µM (inactive) | > 100 µM (inactive) | > 100 µM (inactive) | > 100 µM (inactive) | > 100 µM (inactive) | > 100 µM (inactive) | > 100 µM (inactive) | > 100 µM (inactive) | > 100 µM (inactive) | > 100 µM (inactive) | – | > 100 µM (inactive) | > 100 µM (inactive) | > 100 µM (inactive) | > 100 µM (inactive) |
| Cc1cc(N(CCC#N)CCC#N)ccc1/C=C(\NC(=O)/C=C/c1ccccc1)NC(=O)Nc1ccc(Cl)cc1 | > 100 µM (inactive) | – | 51.6 µM (inactive) | – | > 100 µM (inactive) | > 100 µM (inactive) | 18.9 µM (inactive) | – | 39.4 µM (inactive) | 15.7 µM (inactive) | 15 µM (inactive) | 48.4 µM (inactive) | > 100 µM (inactive) | 80 µM (inactive) | 42.5 µM (inactive) | > 100 µM (inactive) | 1.83 µM (inactive) |
| Cc1cc2c(=O)cc(-c3ccc(Cl)c(Cl)c3)oc2c(C(=O)O)c1C | > 100 µM (inactive) | > 100 µM (inactive) | > 100 µM (inactive) | > 100 µM (inactive) | > 100 µM (inactive) | > 100 µM (inactive) | > 100 µM (inactive) | > 100 µM (inactive) | – | 76.6 µM (inactive) | > 100 µM (inactive) | > 100 µM (inactive) | > 100 µM (inactive) | > 100 µM (inactive) | > 100 µM (inactive) | > 100 µM (inactive) | > 100 µM (inactive) |
| C=Nc1ccc([N+](=O)[O-])cc1 | > 100 µM (inactive) | > 100 µM (inactive) | > 100 µM (inactive) | > 100 µM (inactive) | > 100 µM (inactive) | > 100 µM (inactive) | > 100 µM (inactive) | > 100 µM (inactive) | > 100 µM (inactive) | – | > 100 µM (inactive) | > 100 µM (inactive) | > 100 µM (inactive) | > 100 µM (inactive) | > 100 µM (inactive) | > 63.8 µM (inactive) | 43.5 µM (inactive) |
| CCCN(CCC)c1c([N+](=O)[O-])cc(C(=O)N(C)C)cc1[N+](=O)[O-] | > 100 µM (inactive) | > 100 µM (inactive) | > 100 µM (inactive) | > 100 µM (inactive) | > 100 µM (inactive) | 41 µM (inactive) | 15.5 µM (inactive) | 62.1 µM (inactive) | – | – | > 100 µM (inactive) | – | > 100 µM (inactive) | > 100 µM (inactive) | > 100 µM (inactive) | – | – |
| O=C1/C=C(/c2ccc(O)cc2)[C@@H](O)Cc2ccc(O)cc2O1 | > 100 µM (inactive) | > 100 µM (inactive) | > 100 µM (inactive) | 35.7 µM (inactive) | > 100 µM (inactive) | – | > 100 µM (inactive) | 54.8 µM (inactive) | – | – | 88.1 µM (inactive) | 93.5 µM (inactive) | – | > 100 µM (inactive) | 93.1 µM (inactive) | > 100 µM (inactive) | 92.3 µM (inactive) |
| CCCOc1ccc(/C=C\c2cc(OC)c(OC)c(OC)c2)cc1 | 26.5 µM (inactive) | 31.8 µM (inactive) | > 100 µM (inactive) | – | – | – | 30.5 µM (inactive) | 13.2 µM (inactive) | 34.7 µM (inactive) | 40.1 µM (inactive) | 28.4 µM (inactive) | > 100 µM (inactive) | 63.4 µM (inactive) | > 100 µM (inactive) | 39.9 µM (inactive) | 55.1 µM (inactive) | 27.4 µM (inactive) |
| NC(=O)COc1c(Br)cc(Br)cc1Br | > 100 µM (inactive) | – | > 100 µM (inactive) | > 100 µM (inactive) | > 100 µM (inactive) | > 100 µM (inactive) | 27.7 µM (inactive) | > 100 µM (inactive) | – | – | > 100 µM (inactive) | > 100 µM (inactive) | > 100 µM (inactive) | > 100 µM (inactive) | > 100 µM (inactive) | – | – |
| C/C(CN1C(=O)c2ccccc2C1=O)=N\NS(=O)(=O)c1ccc(C)cc1 | > 100 µM (inactive) | > 100 µM (inactive) | > 100 µM (inactive) | > 100 µM (inactive) | > 100 µM (inactive) | > 100 µM (inactive) | > 100 µM (inactive) | > 100 µM (inactive) | – | – | > 100 µM (inactive) | > 100 µM (inactive) | – | > 100 µM (inactive) | > 100 µM (inactive) | > 100 µM (inactive) | – |
| COc1ccc2oc3c(OC)c(OC)c(OC)cc3c(=O)c2c1 | > 100 µM (inactive) | > 100 µM (inactive) | > 100 µM (inactive) | > 100 µM (inactive) | > 100 µM (inactive) | > 100 µM (inactive) | > 100 µM (inactive) | 21.8 µM (inactive) | – | 21.4 µM (inactive) | – | > 100 µM (inactive) | > 100 µM (inactive) | > 100 µM (inactive) | – | > 100 µM (inactive) | > 100 µM (inactive) |
| C#CC1(O)CCC2C3CCc4cc(Oc5nc(F)nc(-c6c7ccccc7c7sc8ccccc8n67)n5)ccc4C3CC[C@@]21C (stereo not given in full) | > 100 µM (inactive) | > 100 µM (inactive) | > 100 µM (inactive) | – | > 100 µM (inactive) | 42 µM (inactive) | > 100 µM (inactive) | 14.4 µM (inactive) | > 100 µM (inactive) | – | > 100 µM (inactive) | 36.3 µM (inactive) | > 100 µM (inactive) | > 100 µM (inactive) | > 100 µM (inactive) | > 100 µM (inactive) | – |

— ChEMBL document CHEMBL1201862, “PubChem BioAssay data set” (2004)
